Assay results as given in patent publication US10196393B2, “JAK inhibitors containing a 4-membered heterocyclic amide” (THERAVANCE BIOPHARMA R&D IP, LLC, priority 2017, dated 2019).

How the values were obtained:
[1] = tested on: IL-13 induced STAT6 phosphorylation in BEAS-2B human lung epithelial cells; experiment: Cellular JAKI potency assay (AlphaScreen), BEAS-2B; assay type: cell-based; conditions: BEAS-2B cells
Procedure: Assay 2: Cellular JAKI Potency Assay
The AlphaScreen JAKI cellular potency assay was carried out by measuring interleukin-13 (IL-13, R&D Systems) induced STAT6 phosphorylation in BEAS-2B human lung epithelial cells (ATCC). The anti-STAT6 antibody (Cell Signaling Technologies) was conjugated to AlphaScreen acceptor beads (Perkin Elmer), while the anti-pSTAT6 (pTyr641) antibody (Cell Signaling Technologies) was biotinylated using EZ-Link Sulfo-NHS-Biotin (Thermo Scientific).
BEAS-2B cells were grown at 37° C. in a 5% CO2 humidified incubator in 50% DMEM/50% F-12 medium (Life Technologies) supplemented with 10% FBS (Hyclone), 100 U/mL penicillin, 100 μg/mL streptomycin (Life Technologies), and 2 mM GlutaMAX (Life Technologies). On day 1 of the assay, cells were seeded at a 7,500 cells/well density in white poly-D-lysine-coated 384-well plates (Corning) with 25 μL medium, and were allowed to adhere overnight in the incubator. On day 2 of the assay, the medium was removed and replaced with 12 μL of assay buffer (Hank's Balanced Salt Solution/HBSS, 25 mM HEPES, and 1 mg/ml bovine serum albumin/BSA) containing dose-responses of test compounds. Compounds were serially diluted in DMSO and then diluted another 1000-fold in media to bring the final DMSO concentration to 0.1%. Cells were incubated with test compounds at 37° C. for 1 h, and followed by the addition of 12 μl of pre-warmed IL-13 (80 ng/mL in assay buffer) for stimulation. After incubating at 37° C. for 30 min, the assay buffer (containing compound and IL-13) was removed, and 10 μL of cell lysis buffer (25 mM HEPES, 0.1% SDS, 1% NP-40, 5 mM MgCl2, 1.3 mM EDTA, 1 mM EGTA, and supplement with Complete Ultra mini protease inhibitors and PhosSTOP from Roche Diagnostics). The plates were shaken at ambient temperature for 30 min before the addition of detection reagents. A mixture of biotin-anti-pSTAT6 and anti-STAT6 conjugated acceptor beads was added first and incubated at ambient temperature for 2 h, followed by the addition of streptavidin conjugated donor beads (Perkin Elmer). After a minimum of 2 h incubation, the assay plates were read on the EnVision plate reader. AlphaScreen luminescence signals were recorded and utilized to calculate the percent inhibition values based on DMSO and background controls.
For dose-response analysis, percent inhibition data were plotted vs. compound concentrations, and IC50 values were determined from a 4-parameter robust fit model with the Prism software. Results may also be expressed as the negative logarithm of the IC50 value, pIC50.
Test compounds having a lower IC50 value or higher pIC50 value in this assay show greater inhibition of IL-13 induced STAT6 phosphorylation.

[2] = tested on: IL-13 induced pSTAT6 induction in lung tissue; experiment: Murine model of IL-13 induced pSTAT6 induction in lung tissue; assay type: in vivo; conditions: mouse lung, 1 mg/mL 50 μL oral aspiration, IL-13 challenge 4 h after dose, lungs at 5 hours
Description: Assay 4: Murine (Mouse) Model of IL-13 Induced pSTAT6 Induction in Lung Tissue
Il-13 is an important cytokine underlying the pathophysiology of asthma (Kudlacz et al. Eur. J. Pharmacol, 2008, 582,154-161). IL-13 binds to cell surface receptors activating members of the Janus family of kinases (JAK) which then phosphorylate STAT6 and subsequently activates further transcription pathways. In the described model, a dose of IL-13 was delivered locally into the lungs of mice to induce the phosphorylation of STAT6 (pSTAT6) which is then measured as the endpoint.
Adult balb/c mice from Harlan were used in the assay. On the day of study, animals were lightly anesthetized with isoflurane and administered either vehicle or test compound (1 mg/mL, 50 μL total volume over several breaths) via oral aspiration. Animals were placed in lateral recumbency post dose and monitored for full recovery from anesthesia before being returned to their home cage. Four hours later, animals were once again briefly anesthetized and challenged with either vehicle or IL-13 (0.03 μg total dose delivered, 50 μL total volume) via oral aspiration before being monitored for recovery from anesthesia and returned to their home cage. One hour after vehicle or IL-13 administration, lungs were collected for both pSTAT6 detection using an anti-pSTAT6 ELISA (rabbit mAb capture/coating antibody; mouse mAb detection/report antibody: anti-pSTAT6-pY641; secondary antibody: anti-mouse IgG-HRP) and analyzed for total drug concentration as described above in Assay 3.
Selected compounds of the invention were tested in the assay. Activity in the model is evidenced by a decrease in the level of pSTAT6 present in the lungs of treated animals at 5 hours compared to the vehicle treated, IL-13 challenged control animals. The difference between the control animals which were vehicle-treated, IL-13 challenged and the control animals which were vehicle-treated, vehicle challenged dictated the 0% and 100% inhibitory effect, respectively, in any given experiment.

[3] = target: JAK1 (Homo sapiens (Human), UniProt P23458); experiment: Biochemical JAK kinase assay (LanthaScreen), JAK1; conditions: converted from pIC50 with Cheng-Prusoff equation
JAK1, sequence (P23458 whole entry): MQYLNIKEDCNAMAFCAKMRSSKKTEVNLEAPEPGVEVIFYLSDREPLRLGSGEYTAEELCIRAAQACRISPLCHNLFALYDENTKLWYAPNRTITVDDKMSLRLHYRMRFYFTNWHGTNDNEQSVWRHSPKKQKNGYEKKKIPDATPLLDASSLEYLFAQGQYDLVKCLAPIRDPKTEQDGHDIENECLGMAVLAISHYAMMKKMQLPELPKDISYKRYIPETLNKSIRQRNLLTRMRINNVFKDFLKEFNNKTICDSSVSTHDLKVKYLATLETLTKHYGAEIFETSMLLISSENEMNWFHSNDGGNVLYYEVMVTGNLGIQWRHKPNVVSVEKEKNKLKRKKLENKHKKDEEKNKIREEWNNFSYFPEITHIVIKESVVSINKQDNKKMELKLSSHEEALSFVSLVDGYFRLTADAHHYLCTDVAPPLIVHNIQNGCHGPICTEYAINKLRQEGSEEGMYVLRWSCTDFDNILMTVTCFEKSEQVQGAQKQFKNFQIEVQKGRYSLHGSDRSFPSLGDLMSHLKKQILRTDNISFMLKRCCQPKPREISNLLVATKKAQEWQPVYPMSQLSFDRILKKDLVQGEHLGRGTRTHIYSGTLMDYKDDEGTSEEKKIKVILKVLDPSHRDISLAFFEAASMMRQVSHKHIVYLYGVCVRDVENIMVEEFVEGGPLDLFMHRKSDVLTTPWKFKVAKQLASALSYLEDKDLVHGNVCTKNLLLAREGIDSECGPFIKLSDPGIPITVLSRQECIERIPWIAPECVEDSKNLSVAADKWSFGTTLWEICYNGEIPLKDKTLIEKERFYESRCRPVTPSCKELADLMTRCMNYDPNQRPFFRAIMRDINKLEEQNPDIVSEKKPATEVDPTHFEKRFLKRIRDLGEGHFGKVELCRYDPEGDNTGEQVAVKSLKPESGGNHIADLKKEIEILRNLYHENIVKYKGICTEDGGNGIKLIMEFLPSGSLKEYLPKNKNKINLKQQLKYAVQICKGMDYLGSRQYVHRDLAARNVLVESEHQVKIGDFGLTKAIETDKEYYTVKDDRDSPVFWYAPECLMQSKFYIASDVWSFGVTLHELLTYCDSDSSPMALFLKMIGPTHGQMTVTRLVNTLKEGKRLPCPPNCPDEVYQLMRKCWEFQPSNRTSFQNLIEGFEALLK
Procedure: (§1) Assay 1: Biochemical JAK Kinase Assays
(§2) A panel of four LanthaScreen JAK biochemical assays (JAK1, 2, 3 and Tyk2) were carried in a common kinase reaction buffer (50 mM HEPES, pH 7.5, 0.01% Brij-35, 10 mM MgCl2, and 1 mM EGTA). Recombinant GST-tagged JAK enzymes and a GFP-tagged STAT1 peptide substrate were obtained from Life Technologies.
(§3) Serially diluted compounds were pre-incubated with each of the four JAK enzymes and the substrate in white 384-well microplates (Corning) at ambient temperature for 1 h. ATP was subsequently added to initiate the kinase reactions in 10 μL total volume, with 1% DMSO. […] The plates were allowed to incubate at ambient temperature for 1 h before being read on the EnVision reader (Perkin Elmer).
(§4) For dose-response analysis, percent inhibition data were plotted vs. compound concentrations, and IC50 values were determined from a 4-parameter robust fit model with the Prism software (GraphPad Software). Results were expressed as pIC50 (negative logarithm of IC50) and subsequently converted to pKi (negative logarithm of dissociation constant, Ki) using the Cheng-Prusoff equation.

[4] = target: JAK3 (Homo sapiens (Human), UniProt P52333); experiment: Biochemical JAK kinase assay (LanthaScreen), JAK3; conditions: converted from pIC50 with Cheng-Prusoff equation
JAK3, sequence (P52333 whole entry): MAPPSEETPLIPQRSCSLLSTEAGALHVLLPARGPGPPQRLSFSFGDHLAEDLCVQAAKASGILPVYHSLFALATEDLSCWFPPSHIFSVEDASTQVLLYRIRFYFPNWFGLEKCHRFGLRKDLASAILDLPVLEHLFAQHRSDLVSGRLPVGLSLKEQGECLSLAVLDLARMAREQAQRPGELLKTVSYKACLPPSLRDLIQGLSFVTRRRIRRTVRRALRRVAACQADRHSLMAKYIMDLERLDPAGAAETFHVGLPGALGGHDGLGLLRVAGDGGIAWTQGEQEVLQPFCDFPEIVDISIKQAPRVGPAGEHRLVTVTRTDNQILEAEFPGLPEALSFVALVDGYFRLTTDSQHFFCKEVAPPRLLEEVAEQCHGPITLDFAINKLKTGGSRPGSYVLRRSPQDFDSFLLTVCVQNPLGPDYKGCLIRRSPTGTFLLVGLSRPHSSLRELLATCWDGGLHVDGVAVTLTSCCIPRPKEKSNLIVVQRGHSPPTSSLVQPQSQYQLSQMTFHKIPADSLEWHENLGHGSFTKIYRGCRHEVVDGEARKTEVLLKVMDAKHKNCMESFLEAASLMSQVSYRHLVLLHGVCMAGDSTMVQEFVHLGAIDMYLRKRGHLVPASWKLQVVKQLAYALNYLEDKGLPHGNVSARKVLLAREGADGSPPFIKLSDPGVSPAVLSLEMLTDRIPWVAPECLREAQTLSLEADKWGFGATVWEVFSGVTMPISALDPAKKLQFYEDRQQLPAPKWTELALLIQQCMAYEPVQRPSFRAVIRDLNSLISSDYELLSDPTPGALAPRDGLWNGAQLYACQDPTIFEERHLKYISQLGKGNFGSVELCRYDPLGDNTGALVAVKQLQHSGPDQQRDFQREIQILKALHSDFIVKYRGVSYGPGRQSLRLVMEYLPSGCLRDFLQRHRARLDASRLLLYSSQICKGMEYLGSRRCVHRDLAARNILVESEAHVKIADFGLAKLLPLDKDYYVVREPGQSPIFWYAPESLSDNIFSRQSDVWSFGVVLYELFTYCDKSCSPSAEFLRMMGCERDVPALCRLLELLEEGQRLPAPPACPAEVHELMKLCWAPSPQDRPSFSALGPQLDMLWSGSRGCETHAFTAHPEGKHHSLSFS
Procedure: as §1, §2, §3, §4

[5] = target: JAK2 (Homo sapiens (Human), UniProt O60674); experiment: Biochemical JAK kinase assay (LanthaScreen), JAK2; conditions: converted from pIC50 with Cheng-Prusoff equation
JAK2, sequence (O60674 whole entry): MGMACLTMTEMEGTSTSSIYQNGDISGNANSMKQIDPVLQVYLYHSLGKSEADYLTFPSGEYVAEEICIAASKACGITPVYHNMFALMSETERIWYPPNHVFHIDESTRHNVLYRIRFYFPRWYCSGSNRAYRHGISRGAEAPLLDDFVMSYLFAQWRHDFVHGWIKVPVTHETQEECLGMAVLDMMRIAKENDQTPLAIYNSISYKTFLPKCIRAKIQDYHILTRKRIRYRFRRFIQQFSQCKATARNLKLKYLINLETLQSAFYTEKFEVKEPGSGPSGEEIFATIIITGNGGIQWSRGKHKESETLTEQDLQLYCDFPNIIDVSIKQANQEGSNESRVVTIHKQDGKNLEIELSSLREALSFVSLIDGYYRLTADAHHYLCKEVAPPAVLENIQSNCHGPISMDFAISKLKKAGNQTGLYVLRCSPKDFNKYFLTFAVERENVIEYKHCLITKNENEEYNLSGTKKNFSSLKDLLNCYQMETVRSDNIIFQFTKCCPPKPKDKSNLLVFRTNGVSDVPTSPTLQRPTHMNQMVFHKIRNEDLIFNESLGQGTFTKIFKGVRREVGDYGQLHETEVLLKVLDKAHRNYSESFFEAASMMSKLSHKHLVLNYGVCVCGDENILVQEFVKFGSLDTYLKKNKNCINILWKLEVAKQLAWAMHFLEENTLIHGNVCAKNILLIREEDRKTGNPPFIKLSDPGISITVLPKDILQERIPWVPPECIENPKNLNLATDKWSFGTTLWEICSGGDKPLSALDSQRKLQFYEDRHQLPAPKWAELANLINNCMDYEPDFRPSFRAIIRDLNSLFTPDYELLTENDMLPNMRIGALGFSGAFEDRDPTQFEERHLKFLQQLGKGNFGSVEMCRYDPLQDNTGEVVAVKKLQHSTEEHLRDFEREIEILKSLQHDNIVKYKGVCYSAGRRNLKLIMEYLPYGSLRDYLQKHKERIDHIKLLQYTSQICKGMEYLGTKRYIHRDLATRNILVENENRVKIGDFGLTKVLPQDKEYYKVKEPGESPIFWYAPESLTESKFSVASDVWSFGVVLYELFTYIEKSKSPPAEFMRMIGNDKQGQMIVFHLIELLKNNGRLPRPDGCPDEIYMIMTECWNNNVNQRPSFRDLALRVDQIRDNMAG
Procedure: as §1, §2, §3, §4

| SMILES | IC50 [1] [nM] | IC50 ([1]; Homo sapiens) [nM] | Ki [4] [nM] | also measured |
| --- | --- | --- | --- | --- |
| CCc1cc(O)c(F)cc1-c1ccc2c(-c3nc4c([nH]3)CN(CC)C(C(=O)N3CC(N5CCCCC5)C3)C4)n[nH]c2c1 (racemic) [Example 8-4] | 10 | – | – | – |
| CCCN1Cc2[nH]c(-c3n[nH]c4cc(-c5cc(F)c(O)cc5CC)ccc34)nc2C[C@H]1C(=O)N1CC(C)(N(C)C)C1 [Example 8, (S)-(3-(dimethylamino)-3-methylazetidin-1-yl)(2-(6-(2-ethyl-5-fluoro-4-hydroxyphenyl)-1H-indazol-3-yl)-5-propyl-4,5,6,7-tetrahydro-3H-imidazo[4,5-c]pyridin-6-yl)methanone] | – | 8.5 | – | pSTAT6 inhibition Assay 4 [2]: B (B represents between 40% and 60% inhibition) |
| CCc1cc(O)c(F)cc1-c1ccc2c(-c3nc4c([nH]3)CN(C)[C@H](C(=O)N3CC(N5CCCCC5)C3)C4)n[nH]c2c1 [Example 8-1] | 6.3 | – | – | Ki [3]: 0.06 nM |
| CCc1cc(O)c(F)cc1-c1ccc2c(-c3nc4c([nH]3)CN(C)[C@H](C(=O)N3CC(N(C)C)C3)C4)n[nH]c2c1 [Example 8-2] | 12.6 | – | – | Ki [3]: 0.06 nM |
| CCCN1Cc2[nH]c(-c3n[nH]c4cc(-c5cc(F)c(O)cc5CC)ccc34)nc2C[C@H]1C(=O)N1CC(N2CCCCC2)C1 [Example 8-5] | 25.1 | – | 0.2 | – |
| CCc1cc(O)c(F)cc1-c1ccc2c(-c3nc4c([nH]3)CN(C(C)C)[C@H](C(=O)N3CC(N5CCCCC5)C3)C4)n[nH]c2c1 [Example 8-6] | 15.8 | – | – | Ki [3]: 0.06 nM |
| CCc1cc(O)c(F)cc1-c1ccc2c(-c3nc4c([nH]3)CN(C(C)C)[C@H](C(=O)N3CC(N(C)C)C3)C4)n[nH]c2c1 [Example 8-7] | 3.1 | – | 0.2 | pSTAT6 inhibition Assay 4 [2]: B (B represents between 40% and 60% inhibition); Ki [3]: 0.06 nM |
| CCc1cc(O)c(F)cc1-c1ccc2c(-c3nc4c([nH]3)CN(CC)C(C(=O)N3CC(N(C)C)C3)C4)n[nH]c2c1 (stereo not drawn) [Example 8-8] | 5 | – | 0.28 | – |
| CCc1cc(O)c(F)cc1-c1ccc2c(-c3nc4c([nH]3)CN(C)C(C(=O)N3CC(C)(N(C)C)C3)C4)n[nH]c2c1 (stereo not drawn) [Example 8-9] | – | 7.1 | 0.16 | Ki [3]: 0.05 nM |
| CCc1cc(O)c(F)cc1-c1ccc2c(-c3nc4c([nH]3)CN(CC)C(C(=O)N3CC(C)(N(C)C)C3)C4)n[nH]c2c1 (stereo not drawn) [Example 8-10] | – | 3.2 | – | – |
| CCCN1Cc2[nH]c(-c3n[nH]c4cc(-c5cc(F)c(O)cc5CC)ccc34)nc2CC1C(=O)N1CC(C)(N(C)C)C1 (stereo not drawn) [Example 8-11] | – | 6.3 | – | – |
| CCc1cc(O)c(F)cc1-c1ccc2c(-c3nc4c([nH]3)CN(C(C)C)C(C(=O)N3CC(C)(N(C)C)C3)C4)n[nH]c2c1 (stereo not drawn) [Example 8-12] | – | 4 | – | Ki [3]: 0.06 nM |
| CCc1cc(O)c(F)cc1-c1ccc2c(-c3nc4c([nH]3)CN(CC)[C@H](C(=O)N3CC(N5CCCCC5)C3)C4)n[nH]c2c1 [Example 8-14, (S)-(5-ethyl-2-(6-(2-ethyl-5-fluoro-4-hydroxyphenyl)-1H-indazol-3-yl)-4,5,6,7-tetrahydro-3H-imidazo[4,5-c]pyridin-6-yl)(3-(piperidin-1-yl)azetidin-1-yl)methanone] | – | 12.6 | – | – |
| CCc1cc(O)c(F)cc1-c1ccc2c(-c3nc4c([nH]3)CN(CC)[C@@H](C(=O)N3CC(N5CCCCC5)C3)C4)n[nH]c2c1 [Example 8-15] | 5.6 | – | – | pSTAT6 inhibition Assay 4 [2]: C (C represents between 25% and 40% inhibition); Ki [5]: 0.03 nM |
| CCc1cc(O)c(F)cc1-c1ccc2c(-c3nc4c([nH]3)CN(C(C)C)C(C(=O)N3CC(C)(N(C)C)C3)C4)n[nH]c2c1 (stereo not drawn) [Example 8-16] | – | – | – | pSTAT6 inhibition Assay 4 [2]: C (C represents between 25% and 40% inhibition) |
| CCc1cc(O)c(F)cc1-c1ccc2c(-c3nc4c([nH]3)CN(C(C)C)[C@H](C(=O)N3CC(C)(N(C)C)C3)C4)n[nH]c2c1 [Example 8-16] | – | 5 | – | – |
| CCc1cc(O)c(F)cc1-c1ccc2c(-c3nc4c([nH]3)CN(C(C)C)[C@@H](C(=O)N3CC(N(C)C)C3)C4)n[nH]c2c1 [Example 8-17] | 8 | – | 0.13 | – |
| CCc1cc(O)c(F)cc1-c1ccc2c(-c3nc4c([nH]3)CN(C(C)C)[C@@H](C(=O)N3CC(C)(N(C)C)C3)C4)n[nH]c2c1 [Example 8-18] | – | 4 | – | – |
| CCCN1Cc2[nH]c(-c3n[nH]c4cc(-c5cc(F)c(O)cc5CC)ccc34)nc2C[C@@H]1C(=O)N1CC(C)(N(C)C)C1 [Example 8-19] | – | 8 | – | – |
| CCc1cc(O)c(F)cc1-c1ccc2c(-c3nc4c([nH]3)CN(CC)[C@@H](C(=O)N3CC(N(C)C)C3)C4)n[nH]c2c1 [Example 8-20] | 5 | – | 0.2 | – |
| CCc1cc(O)c(F)cc1-c1ccc2c(-c3nc4c([nH]3)CN(CC)[C@@H](C(=O)N3CC(C)(N(C)C)C3)C4)n[nH]c2c1 [Example 8-21] | – | 4 | – | – |
| CCc1cc(O)c(F)cc1-c1ccc2c(-c3nc4c([nH]3)CN(CC)[C@H](C(=O)N3CC(N(C)C)C3)C4)n[nH]c2c1 [Example 8-22, (S)-(3-(dimethylamino)azetidin-1-yl)(5-ethyl-2-(6-(2-ethyl-5-fluoro-4-hydroxyphenyl)-1H-indazol-3-yl)-4,5,6,7-tetrahydro-3H-imidazo[4,5-c]pyridin-6-yl)methanone] | – | 5.25 | 0.32 | pSTAT6 inhibition Assay 4 [2]: B (B represents between 40% and 60% inhibition) |
| CCc1cc(O)c(F)cc1-c1ccc2c(-c3nc4c([nH]3)CN(CC)[C@H](C(=O)N3CC(C)(N(C)C)C3)C4)n[nH]c2c1 [Example 8-23, (S)-(3-(dimethylamino)-3-methylazetidin-1-yl)(5-ethyl-2-(6-(2-ethyl-5-fluoro-4-hydroxyphenyl)-1H-indazol-3-yl)-4,5,6,7-tetrahydro-3H-imidazo[4,5-c]pyridin-6-yl)methanone] | – | 7.7 | – | pSTAT6 inhibition Assay 4 [2]: B (B represents between 40% and 60% inhibition) |
